According to the supplement of paper PMC10307832:

Key:
Assay in all cases: relative viability (nuclei count vs DMSO), 5 days (fraction); higher = more cells survive
XMD14-99 + Foretinib = compound: CN1CCN(CC1)C2=CC(=C(C=C2)NC3=NC(=C(S3)C(=O)C4=C(C=CC=C4Cl)Cl)N)OC [XMD14-99] + COc1cc2c(Oc3ccc(NC(=O)C4(C(=O)Nc5ccc(F)cc5)CC4)cc3F)ccnc2cc1OCCCN1CCOCC1 [Foretinib] (partner 0.25 µM)
Outline: (§1)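 Lung cancer cell lines in 1536-well plates were dosed by pin tool the day after seeding, either with one drug alone or with a fixed anchor-drug dose plus five library-drug doses (not always all listed) in √10 steps. After 5 days, cells were fixed and their nuclei stained in one step (final 0.05% Triton X-100, 1% formaldehyde, 1 ug/ml Hoechst), then counted on 4× images. Relative viability is the nuclei count in treated wells divided by that in vehicle wells. Values are medians of duplicate plates.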

XMD14-99 + Tozasertib = compound: CN1CCN(CC1)C2=CC(=C(C=C2)NC3=NC(=C(S3)C(=O)C4=C(C=CC=C4Cl)Cl)N)OC [XMD14-99] + Cc1cc(Nc2cc(N3CCN(C)CC3)nc(Sc3ccc(NC(=O)C4CC4)cc3)n2)n[nH]1 [Tozasertib] (partner 0.1 µM)
Outline: as §1

AZD1208 + Bortezomib = compound: N[C@@H]1CCCN(c2c(/C=C3\SC(=O)NC3=O)cccc2-c2ccccc2)C1 [AZD1208] + CC(C)C[C@H](NC(=O)[C@H](Cc1ccccc1)NC(=O)c1cnccn1)B(O)O [Bortezomib] (partner 0.002 µM)
Outline: as §1

AZD1208 + Crizotinib = compound: N[C@@H]1CCCN(c2c(/C=C3\SC(=O)NC3=O)cccc2-c2ccccc2)C1 [AZD1208] + C[C@@H](Oc1cc(-c2cnn(C3CCNCC3)c2)cnc1N)c1c(Cl)ccc(F)c1Cl [Crizotinib] (partner 1 µM)
Outline: as §1

## UMC-11
XMD14-99 + Foretinib; first compound 0.08 µM
  relative viability: 1.03
XMD14-99 + Foretinib; first compound 0.8 µM
  relative viability: 1.02
XMD14-99 + Foretinib; first compound 2.53 µM
  relative viability: 1.03
XMD14-99 + Foretinib; first compound 8 µM
  relative viability: 0.865
XMD14-99 + Tozasertib; first compound 0.08 µM
  relative viability: 0.196
XMD14-99 + Tozasertib; first compound 0.8 µM
  relative viability: 0.227
XMD14-99 + Tozasertib; first compound 2.53 µM
  relative viability: 0.231
XMD14-99 + Tozasertib; first compound 8 µM
  relative viability: 0.23
AZD1208 + Bortezomib; first compound 0.08 µM
  relative viability: 0.742
AZD1208 + Bortezomib; first compound 0.253 µM
  relative viability: 0.755
AZD1208 + Bortezomib; first compound 0.8 µM
  relative viability: 0.644
AZD1208 + Bortezomib; first compound 2.53 µM
  relative viability: 0.62
AZD1208 + Bortezomib; first compound 8 µM
  relative viability: 0.374
AZD1208 + Crizotinib; first compound 0.08 µM
  relative viability: 0.553
AZD1208 + Crizotinib; first compound 0.253 µM
  relative viability: 0.502
AZD1208 + Crizotinib; first compound 0.8 µM
  relative viability: 0.426
AZD1208 + Crizotinib; first compound 2.53 µM
  relative viability: 0.426
AZD1208 + Crizotinib; first compound 8 µM
  relative viability: 0.275
